Assay results reported in patent publication US11629171B2, “Beta-hairpin peptidomimetics” (POLYPHOR AG, priority 2017, dated 2023).
Values after ≈ are worked out from the molar mass of the structure shown. Where a SMILES comes first, the peptide text is derived from it. Bridges are numbered along the chain shown (N, C = ends). Roman numbers before positions name the chains, in order. [ ]: non-standard residue; d: D form. Thr(ol) = C[C@@H](O)[C@H](N)CO; Tle = CC(C)(C)[C@H](N)C(=O)O; Hiv = CC(C)[C@H](O)C(=O)O; dDab = NCC[C@@H](N)C(=O)O; hSer = N[C@@H](CCO)C(=O)O; Orn = NCCC[C@H](N)C(=O)O; Dab = NCC[C@H](N)C(=O)O; Dap = NC[C@H](N)C(=O)O

Legend:
Type in all cases: cell-based
[1] = system: Acinetobacter baumannii 872842; conditions: 872842
Procedure: (§1) The in vitro antimicrobial activities of the peptides were determined in 96-well plates (Greiner, polystyrene) by the standard CLSI broth microdilution method (Clinical and Laboratory Standards Institute 2014. Performance standards for antimicrobial susceptibility testing, 24th informational supplement. Approved standard CLSI M100-S24; Clinical and Laboratory Standards Institute, Wayne, Pa.). The following microorganisms were used to determine antibiotic activity of the peptides: Escherichia coli ATCC 25922, Klebsiella pneumoniae SSI #3010^a), Acinetobacter baumannii DSM 30008, Pseudomonas aeruginosa ATCC 27853 and the clinical isolates Escherichia coli 926415^b), Klebsiella pneumoniae 968733^b), Acinetobacter baumannii 872842^b), Enterobacter cloacae 848840^b) and Escherichia coli MCR-1 Af45^c). Before preparation of inocula, Escherichia coli MCR-1 Af45 was subcultured on Mueller-Hinton II (MH-cation adjusted) agar containing 2 μg/mL colistin. ^a) Obtained from Statens Serum Institut (SSI), Copenhagen, Denmark^b) Obtained from International Health Management Associates, Inc. (IHMA Europe Sàrl), Epalinges, Switzerland^c) Obtained from Prof. Patrice Nordmann, University of Fribourg, Fribourg, Switzerland
(§2) Inocula of the microorganisms were diluted into Mueller-Hinton II (MH-cation adjusted) broth and compared with a 0.5 McFarland standard to give appr. 10^6 colony forming units (CFU)/mL. Aliquots (90 μL) of inoculum were added to 10 μL of MH-II broth+P-80 (Polysorbate 80, 0.002% final concentration, v/v) containing the peptide in serial two-fold dilutions. Antimicrobial activities of the peptides were expressed as the minimal inhibitory concentration (MIC) in μg/mL at which no visible growth was observed after 18-20 hours of incubation at 35° C.

[2] = system: Acinetobacter baumannii DSM 30008; conditions: DSM 30008
Procedure: as §1, §2

[3] = system: Enterobacter cloacae 848840; conditions: 848840
Procedure: as §1, §2

Escherichia coli 926415 = conditions: 926415
Procedure: as §1, §2

[4] = system: Escherichia coli ATCC 25922; conditions: ATCC 25922
Procedure: as §1, §2

[5] = system: Klebsiella pneumoniae 968733; conditions: 968733
Procedure: as §1, §2

[6] = system: Klebsiella pneumoniae SSI #3010; conditions: SSI #3010
Procedure: as §1, §2

[7] = system: Pseudomonas aeruginosa ATCC 27853; conditions: ATCC 27853
Procedure: as §1, §2

[8] = system: human red blood cells (hRBC); assay: Hemolysis; conditions: red cells of human, 1 h, 200
Procedure: The peptides were tested for their hemolytic activity against human red blood cells (hRBC). Fresh hRBC were washed four times with phosphate buffered saline (PBS) and centrifuged for 10 min at 3000×g. Compounds (200 μg/mL) were incubated with 20% hRBC (v/v) for 1 h at 37° C. and shaking at 300 rpm. A value of 0% and 100% cell lysis, respectively, was determined by incubation of hRBC in the presence of PBS containing 10% water and 2% Triton X-100 in H2O, respectively. The samples were centrifuged, the supernatants were ˜7.5-fold diluted in PBS buffer and the optical densities (OD) were measured at 540 nm and blank corrected. The 100% lysis value (OD540Triton X-100) gave an OD540 of approximately 0.5-1.0.
Percent hemolysis was calculated as follows: (OD540peptide/OD540Triton X-100)×100%.

MIC [1] [µg/mL]	MIC [2] [µg/mL]	MIC [3] [µg/mL]	MIC (Escherichia coli 926415) [µg/mL]	MIC [4] [µg/mL]	MIC [5] [µg/mL]	MIC [6] [µg/mL]	MIC [7] [µg/mL]	SMILES	Hemolysis at 200 μg/mL [8] [%]
0.125 (≈ 0.0535 µM)	0.0625 (≈ 0.0268 µM)	0.25 (≈ 0.107 µM)	0.5 (≈ 0.214 µM)	0.0625 (≈ 0.0268 µM)	0.5 (≈ 0.214 µM)	0.125 (≈ 0.0535 µM)	0.25 (≈ 0.107 µM)	CC(=O)N[C@H](C(=O)N[C@H]1CCCNC(=O)[C@@H]([C@H](C)O)NC(=O)[C@H](C(C)(C)C)NC(=O)[C@H](CO)NC(=O)[C@H](Cc2c[nH]c3ccccc23)NC(=O)[C@H](CCO)NC(=O)[C@@H](CCN)NC(=O)[C@H](CCC(=O)N[C@@H](CCN)C(=O)N[C@H](C(=O)N[C@@H](CN)C(=O)N[C@H]2CCNC(=O)[C@H]([C@@H](C)O)NC(=O)[C@H](CCN)NC(=O)[C@H](CCN)NC(=O)[C@H](CC(C)C)NC(=O)[C@@H](CC(C)C)NC(=O)[C@H](CCN)NC2=O)[C@@H](C)O)NC(=O)[C@H]([C@@H](C)O)NC(=O)[C@H](Cc2ccc(O)cc2)NC1=O)C(C)C [Ex. 17] (I: Ac-V[Orn]YTE[dDab][hSer]WS[Tle][dT] / II: [Dab]T[Dap][Dab][Dab][dL]L[Dab][Dab]T; lactam I:2-I:C, II:4-II:C; amide I:5-II:N)	<1
1 (≈ 0.414 µM)	0.25 (≈ 0.104 µM)	–	0.5 (≈ 0.207 µM)	0.25 (≈ 0.104 µM)	4 (≈ 1.66 µM)	0.5 (≈ 0.207 µM)	0.25 (≈ 0.104 µM)	CC(C)C[C@@H]1NC(=O)[C@@H](CC(C)C)NC(=O)[C@H](CCN)NC(=O)[C@@H](NC(=O)[C@H](CN)NC(=O)[C@@H](NC(=O)[C@H](CCN)NC(=O)CC[C@H]2NC(=O)[C@@H](CCN)NC(=O)[C@H](CCCN)NC(=O)[C@H](CCN)NC(=O)[C@H](Cc3ccc(O)cc3)NC(=O)[C@@H](NC(=O)[C@@H](O)C(C)C)CSSC[C@@H](C(=O)N[C@H](C(N)=O)[C@@H](C)O)NC(=O)[C@H](C(C)(C)C)NC(=O)[C@H](CO)NC(=O)[C@H](Cc3c[nH]c4ccccc34)NC2=O)[C@@H](C)O)CCNC(=O)[C@H]([C@@H](C)O)NC(=O)[C@H](CCN)NC(=O)[C@H](CCN)NC1=O [Ex. 169] (I: H-[Hiv]CY[Dab][Orn][dDab][dE]WS[Tle]CT-NH2 / II: [Dab]T[Dap][Dab][Dab][dL]L[Dab][Dab]T; disulfide I:2-I:11; amide I:7-II:N; lactam II:4-II:C)	<1
2 (≈ 0.844 µM)	0.25 (≈ 0.105 µM)	–	0.5 (≈ 0.211 µM)	0.125 (≈ 0.0527 µM)	2 (≈ 0.844 µM)	0.5 (≈ 0.211 µM)	0.5 (≈ 0.211 µM)	CC(C)C[C@@H]1NC(=O)[C@@H](CC(C)C)NC(=O)[C@H](CCN)NC(=O)[C@@H](NC(=O)[C@H](CN)NC(=O)[C@@H](NC(=O)[C@H](CCN)NC(=O)CC[C@H]2NC(=O)CNC(=O)[C@H](CCCN)NC(=O)[C@H](CCN)NC(=O)[C@H](Cc3ccc(O)cc3)NC(=O)[C@@H](NC(=O)[C@@H](O)C(C)C)CSSC[C@@H](C(=O)N[C@H](C(N)=O)[C@@H](C)O)NC(=O)[C@H](C(C)(C)C)NC(=O)[C@H](CO)NC(=O)[C@H](Cc3c[nH]c4ccccc34)NC2=O)[C@@H](C)O)CCNC(=O)[C@H]([C@@H](C)O)NC(=O)[C@H](CCN)NC(=O)[C@H](CCN)NC1=O [Ex. 170] (I: H-[Hiv]CY[Dab][Orn]G[dE]WS[Tle]CT-NH2 / II: [Dab]T[Dap][Dab][Dab][dL]L[Dab][Dab]T; disulfide I:2-I:11; amide I:7-II:N; lactam II:4-II:C)	<1
2 (≈ 0.838 µM)	0.25 (≈ 0.105 µM)	–	1 (≈ 0.419 µM)	0.125 (≈ 0.0524 µM)	4 (≈ 1.68 µM)	0.25 (≈ 0.105 µM)	0.5 (≈ 0.21 µM)	CC(C)C[C@@H]1NC(=O)[C@@H](CC(C)C)NC(=O)[C@H](CCN)NC(=O)[C@@H](NC(=O)[C@H](CN)NC(=O)[C@@H](NC(=O)[C@H](CCN)NC(=O)CC[C@@H]2NC(=O)[C@H](CCCN)NC(=O)[C@@H](NC(=O)[C@H](Cc3ccc(O)cc3)NC(=O)[C@@H](NC(=O)[C@@H](O)C(C)C)[C@@H](C)O)CSSC[C@@H](C(=O)N[C@H](C(=O)N[C@@H](C)C(=O)N[C@H](CO)[C@@H](C)O)C(C)(C)C)NC(=O)[C@H](Cc3c[nH]c4ccccc34)NC(=O)[C@H]([C@@H](C)O)NC2=O)[C@@H](C)O)CCNC(=O)[C@H]([C@@H](C)O)NC(=O)[C@H](CCN)NC(=O)[C@H](CCN)NC1=O [Ex. 209] (I: H-[Hiv]TYC[Orn]ETWC[Tle]A[Thr(ol)] / II: [Dab]T[Dap][Dab][Dab][dL]L[Dab][Dab]T; disulfide I:4-I:9; amide I:6-II:N; lactam II:4-II:C)	<1
